Measured values reported in patent publication US20040038888A1 (priority 2002, published 2004).

Experiments:
primary adult NSC = test: Self renewal and multipotency assay; format: cell-based, mouse; settings: PACAP 100 nM
Description: Anterior lateral wall of the lateral ventricle was dissociated as described in Example 2 (Method A), and the cells resuspended in Neurosphere medium without EGF. The cell suspension was divided into a 24-well plate in triplicate and PACAP added to a final concentration of 100 nM. After 7 days, the neurospheres were split into single cells, as described in Example 1 (Method A), but in the absence of EGF. The cells were replated as single cells, PACAP added to 100 nM and incubated a further 7 days. The cells were passaged one further time, and plated as single cells in Neurosphere medium supplemented with 1% Fetal Calf Serum (Gibco) and 100 nM PACAP (Bachem) onto poly-D-lysine plates. The cells were incubated over-night in which time they adhered to the poly-D-lysine plates and the medium was changed to Neurosphere medium supplemented with 100 nM PACAP38, but absent of Fetal Calf Serum. The cells were cultured for a further 3 days, after which they were washed twice in PBS (Gibco) and fixed for 15 min at room temperature with 4% Formaldehyde (Sigma) and permeabilised for 20 minutes at room temperature in 0,1% Triton X-100 (Sigma) in PBS. After fixation and permeabilisation the cells were labelled with mouse monoclonal anti β-III Tubulin (1:1000 Promega), rabbit anti GFAP (1:500 Sigma), and mouse anti CNPase (1:500 Sigma). Primary antibodies were visualized with anti mouse Texas-Red and anti rabbit FITC (1:500 Vector Laboratories). All antibodies were diluted in PBS with 0,1% Triton X-l00.

[1] = tested on: differentiating neural stem cells; test: Thymidine incorporation, differentiating adult mouse NSC, adherent culture; format: cell-based; settings: adherent conditions, 3 days, relative to controls
Description: To determine thymidine incorporation into DNA, mouse neurospheres, cultured as described above, from passage 2, were seeded in DMEM/F12 supplemented with B27 and 1% Fetal Calf Serum into a 96-well plate coated with poly-D-lysine as single cells (30000 cells/well) and cultured over-night. The following day the medium was replaced with Neurosphere medium and PACAP added to the concentrations indicated for a further 3 days. 3H-thymidine, 10 uCi/ml, was present the last 24 hours. Cells were harvested on to a filter paper and radioactivity was measured. 3H-thymidine (6,7 Ci/mmol) was from PerkinElmer.

hippocampal neurogenesis = test: PACAP/BrdU infusion, BrdU/NeuN co-labelling of the dentate gyrus; format: in vivo, mouse; settings: 600 nM pump concentration, 0.5 μl/hr, 7 days infusion plus 10 days survival, relative to vehicle
Description: 10 week old male mice (C57B1/2), maintained on a 12 hr light/dark cycle with food and water ad libidum, were infused in the right lateral ventricle with PACAP38 (Bachem), using a Alzet pump (1007D), for 3,5 days or 7 days at a daily dose of 31 ng/day (600 nM PACAP pump concentration infused at a rate of 0.5 μl/hr). Bromodeoxyuridine (BrdU) (50 mg/ml) was also included in the infusion vehicle (0.9% saline containing 1 mg/ml mouse serum albumin (Sigma)) to enable measurement of proliferation by quantitation of BrdU incorporation in the DNA. The group of infused with either PACAP/BrdU or vehicle/BrdU for 3,5 days and sacrificed at this time point. The group infused with either PACAP/BrdU or vehicle/BrdU for 7 days were allowed to survive a further 10 days. After the allotted time the mice were sacrificed, perfused with PBS the brains removed and frozen at −70° C. prior to sectioning for immumohistochemical analysis.
The procedure for doubling labeling of BrdU with NeuN was performed sequentially. […]
For all BrdU/NeuN co-labelling experiments, one to two sections per animal were analysed. […] The number of BrdU/NeuN-labelled cells per area of dentate granule cell layer was counted manually. […] Results of the dentate gyrus BrdU/NeuN counts are expressed as the average number of BrdU/NeuN-positive cells per dentate gyrus for each individual animal and reported as the mean ±SEM.

Substance: pituitary adenylate cyclase-activating polypeptide [PACAP]
- multiply-passaged neurospheres compared to EGF-treated neurospheres (primary adult NSC): no relevant differences
- self-renewal (secondary and tertiary neurospheres) (primary adult NSC; absence of other mitogens): retained their ability to self-renew
- multipotentiality (β-III Tubulin, GFAP, CNPase immunoreactivity) (primary adult NSC; spontaneous differentiation on poly-D-lysine): retaining the potential of generating all the cells of the CNS
- incorporation of tritiated thymidine [1]: No significant difference
- neurogenesis in the ipsilateral dentate gyrus (BrdU/NeuN positive cells/dentate gyrus) (hippocampal neurogenesis): increase in neurogenesis
